Literature values in PMC10146281, “Pharmacokinetic and Pharmacodynamic Characteristics of Pelubiprofen Tromethamine vs. Pelubiprofen in Healthy Subjects” (Pharmaceutics, 2023).
Like-named read-outs stand apart in the source and are kept apart here.

Conditions: cited from earlier work

In the case of `CC(C)Cc1ccc(C(C)C(=O)O)cc1.N=C(N)NCCC[C@H](N)C(=O)O` (centres unmarked) [ibuprofen arginate], the Cmax (in vivo) is given as “approximately 30 mg/L”.
In the case of `CC(C)Cc1ccc(C(C)C(=O)O)cc1` (centres unmarked) [ibuprofen], the Cmax is given as “approximately 24 mg/L”.
